Reference: patent publication US10597388B2, “Pyridazinone herbicides” (FMC CORPORATION, priority 2014, dated 2020)

Experiments:
Experiment in all cases: Test E greenhouse herbicide test, pre- and postemergence
Assay type in all cases: in vivo
[1] = test system: goosegrass (Eleusine indica); details: Preemergence
Summary of the method: (§1)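 Scores (0–100, visual, vs controls) reflect greenhouse growth of 14 to 21 d after treatment. Application was pre-emergence to silt loam or post-emergence at the 1- to 4-leaf stage.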

[2] = test system: ragweed (common ragweed, Ambrosia elatior)
Summary of the method: as §1

[3] = test system: panicum, fall (fall panicum, Panicum dichotomiflorum)
Summary of the method: as §1

corn (Zea mays) = test system: corn (Zea mays)
Summary of the method: as §1

[4] = test system: waterhemp (common waterhemp, Amaranthus rudis)
Summary of the method: as §1

[5] = test system: nutsedge, yellow (yellow nutsedge, Cyperus esculentus); details: Preemergence
Summary of the method: as §1

[6] = test system: sandbur (southem sandbur, Cenchrus echinatus)
Summary of the method: as §1

[7] = test system: barnyardgrass (Echinochloa crus-galli)
Summary of the method: as §1

[8] = test system: lambsquarters (Chenopodium album); details: Preemergence
Summary of the method: as §1

[9] = test system: surinam grass (Brachiaria decumbens); details: Preemergence
Summary of the method: as §1

[10] = test system: beggarticks (hairy beggarticks, Bidens pilosa)
Summary of the method: as §1

[11] = test system: crabgrass, Brazilian (Brazilian crabgrass, Digitaria horizontalis)
Summary of the method: as §1

[12] = test system: field bindweed (Convolvulus arvensis)
Summary of the method: as §1

[13] = 62 g ai/ha, scale 0 to 100 (0 no effect, 100 complete control)
[14] = 125 g ai/ha, scale 0 to 100 (0 no effect, 100 complete control)
[15] = 16 g ai/ha, scale 0 to 100, 0 no effect, 100 complete control
[16] = 31 g ai/ha, scale 0 to 100, 0 no effect, 100 complete control
[17] = 62 g ai/ha, Preemergence, scale 0 to 100 (0 no effect, 100 complete control)
[18] = 125 g ai/ha, Preemergence, scale 0 to 100 (0 no effect, 100 complete control)
[19] = Preemergence, 16 g ai/ha, scale 0 to 100, 0 no effect, 100 complete control
[20] = Preemergence, 31 g ai/ha, scale 0 to 100, 0 no effect, 100 complete control
[21] = 62 g ai/ha, Postemergence, scale 0 to 100 (0 no effect, 100 complete control)
[22] = 125 g ai/ha, Postemergence, scale 0 to 100 (0 no effect, 100 complete control)
[23] = Postemergence, 16 g ai/ha, visual, scale 0 no effect to 100 complete control
[24] = Postemergence, 31 g ai/ha, visual, scale 0 no effect to 100 complete control

## COC(=O)Oc1c(C)nn(C)c(=O)c1-c1c(C)sc2ccc(C)cc12 [Compound 80]
[1]; [13]
  Plant response rating, Goosegrass: 30
[1]; [14]
  Plant response rating, Goosegrass: 20
[1]; [15]
  Plant response rating, Goosegrass: 0
[1]; [16]
  Plant response rating, Goosegrass: 0
[2]; [17]
  Plant response rating, Ragweed: 100
[2]; [18]
  Plant response rating, Ragweed: 100
[2]; [19]
  Plant response rating, Ragweed: 70
[2]; [20]
  Plant response rating, Ragweed: 70
[3]; [17]
  Plant response rating, Panicum, Fall: 95
[3]; [18]
  Plant response rating, Panicum, Fall: 98
[3]; [19]
  Plant response rating, Panicum, Fall: 80
[3]; [20]
  Plant response rating, Panicum, Fall: 90
Corn (Zea mays); [17]
  Plant response rating, Corn: 0
Corn (Zea mays); [18]
  Plant response rating, Corn: 0
Corn (Zea mays); [19]
  Plant response rating, Corn: 0
Corn (Zea mays); [20]
  Plant response rating, Corn: 0
[4]; [17]
  Plant response rating, Waterhemp: 100
[4]; [18]
  Plant response rating, Waterhemp: 100
[4]; [19]
  Plant response rating, Waterhemp: 0
[4]; [20]
  Plant response rating, Waterhemp: 70
[5]; [13]
  Plant response rating, Nutsedge, Yellow: 40
[5]; [14]
  Plant response rating, Nutsedge, Yellow: 35
[5]; [15]
  Plant response rating, Nutsedge, Yellow: 5
[5]; [16]
  Plant response rating, Nutsedge, Yellow: 10
[6]; [17]
  Plant response rating, Sandbur: 70
[6]; [18]
  Plant response rating, Sandbur: 75
[6]; [19]
  Plant response rating, Sandbur: 0
[6]; [20]
  Plant response rating, Sandbur: 65
[7]; [17]
  Plant response rating, Barnyardgrass: 20
[7]; [18]
  Plant response rating, Barnyardgrass: 20
[7]; [19]
  Plant response rating, Barnyardgrass: 0
[7]; [20]
  Plant response rating, Barnyardgrass: 0
[8]; [13]
  Plant response rating, Lambsquarters: 98
[8]; [14]
  Plant response rating, Lambsquarters: 100
[8]; [15]
  Plant response rating, Lambsquarters: 65
[8]; [16]
  Plant response rating, Lambsquarters: 100
[9]; [13]
  Plant response rating, Surinam Grass: 20
[9]; [14]
  Plant response rating, Surinam Grass: 75
[9]; [15]
  Plant response rating, Surinam Grass: 0
[9]; [16]
  Plant response rating, Surinam Grass: 10
[10]; [17]
  Plant response rating, Beggarticks: 100
[10]; [18]
  Plant response rating, Beggarticks: 100
[10]; [19]
  Plant response rating, Beggarticks: 100
[10]; [20]
  Plant response rating, Beggarticks: 85
[11]; [17]
  Plant response rating, Crabgrass, Brazil: 90
[11]; [18]
  Plant response rating, Crabgrass, Brazil: 100
[11]; [19]
  Plant response rating, Crabgrass, Brazil: 65
[11]; [20]
  Plant response rating, Crabgrass, Brazil: 75
[12]; [17]
  Plant response rating, Field Bindweed: 70
[12]; [18]
  Plant response rating, Field Bindweed: 100
[12]; [19]
  Plant response rating, Field Bindweed: 20
[12]; [20]
  Plant response rating, Field Bindweed: 25

## CCCC(=O)Oc1c(C)nn(C)c(=O)c1-c1c(C)sc2ccc(C)cc12 [Compound 105]
[1]; [13]
  Plant response rating, Goosegrass: 0
[1]; [14]
  Plant response rating, Goosegrass: 10
[1]; [15]
  Plant response rating, Goosegrass: 0
[1]; [16]
  Plant response rating, Goosegrass: 0
[2]; [21]
  Plant response rating, Ragweed: 90
[2]; [17]
  Plant response rating, Ragweed: 95
[2]; [22]
  Plant response rating, Ragweed: 95
[2]; [18]
  Plant response rating, Ragweed: 98
[2]; [23]
  Plant response rating, Ragweed: 70
[2]; [19]
  Plant response rating, Ragweed: 50
[2]; [20]
  Plant response rating, Ragweed: 65
[3]; [21]
  Plant response rating, Panicum, Fall: 70
[3]; [17]
  Plant response rating, Panicum, Fall: 90
[3]; [22]
  Plant response rating, Panicum, Fall: 80
[3]; [18]
  Plant response rating, Panicum, Fall: 98
[3]; [23]
  Plant response rating, Panicum, Fall: 40
[3]; [24]
  Plant response rating, Panicum, Fall: 60
[3]; [19]
  Plant response rating, Panicum, Fall: 25
[3]; [20]
  Plant response rating, Panicum, Fall: 65
Corn (Zea mays); [21]
  Plant response rating, Corn: 15
Corn (Zea mays); [17]
  Plant response rating, Corn: 0
Corn (Zea mays); [22]
  Plant response rating, Corn: 20
Corn (Zea mays); [18]
  Plant response rating, Corn: 0
Corn (Zea mays); [23]
  Plant response rating, Corn: 0
Corn (Zea mays); [24]
  Plant response rating, Corn: 5
Corn (Zea mays); [19]
  Plant response rating, Corn: 0
Corn (Zea mays); [20]
  Plant response rating, Corn: 0
[4]; [17]
  Plant response rating, Waterhemp: 90
[4]; [22]
  Plant response rating, Waterhemp: 90
[4]; [18]
  Plant response rating, Waterhemp: 100
[4]; [23]
  Plant response rating, Waterhemp: 60
[4]; [24]
  Plant response rating, Waterhemp: 70
[4]; [19]
  Plant response rating, Waterhemp: 70
[4]; [20]
  Plant response rating, Waterhemp: 80
[5]; [13]
  Plant response rating, Nutsedge, Yellow: 10
[5]; [14]
  Plant response rating, Nutsedge, Yellow: 40
[5]; [15]
  Plant response rating, Nutsedge, Yellow: 0
[5]; [16]
  Plant response rating, Nutsedge, Yellow: 0
[6]; [17]
  Plant response rating, Sandbur: 70
[6]; [22]
  Plant response rating, Sandbur: 50
[6]; [18]
  Plant response rating, Sandbur: 75
[6]; [23]
  Plant response rating, Sandbur: 30
[6]; [24]
  Plant response rating, Sandbur: 40
[6]; [19]
  Plant response rating, Sandbur: 0
[6]; [20]
  Plant response rating, Sandbur: 15
[7]; [21]
  Plant response rating, Barnyardgrass: 30
[7]; [17]
  Plant response rating, Barnyardgrass: 20
[7]; [22]
  Plant response rating, Barnyardgrass: 30
[7]; [18]
  Plant response rating, Barnyardgrass: 35
[7]; [23]
  Plant response rating, Barnyardgrass: 15
[7]; [24]
  Plant response rating, Barnyardgrass: 20
[7]; [19]
  Plant response rating, Barnyardgrass: 20
[8]; [13]
  Plant response rating, Lambsquarters: 100
[8]; [14]
  Plant response rating, Lambsquarters: 100
[8]; [15]
  Plant response rating, Lambsquarters: 0
[8]; [16]
  Plant response rating, Lambsquarters: 0
[9]; [13]
  Plant response rating, Surinam Grass: 10
[9]; [14]
  Plant response rating, Surinam Grass: 70
[9]; [15]
  Plant response rating, Surinam Grass: 0
[9]; [16]
  Plant response rating, Surinam Grass: 0
[10]; [21]
  Plant response rating, Beggarticks: 100
[10]; [17]
  Plant response rating, Beggarticks: 100
[10]; [22]
  Plant response rating, Beggarticks: 100
[10]; [18]
  Plant response rating, Beggarticks: 100
[10]; [23]
  Plant response rating, Beggarticks: 80
[10]; [24]
  Plant response rating, Beggarticks: 90
[10]; [19]
  Plant response rating, Beggarticks: 90
[10]; [20]
  Plant response rating, Beggarticks: 80
[11]; [21]
  Plant response rating, Crabgrass, Brazil: 40
[11]; [17]
  Plant response rating, Crabgrass, Brazil: 35
[11]; [22]
  Plant response rating, Crabgrass, Brazil: 50
[11]; [18]
  Plant response rating, Crabgrass, Brazil: 75
[11]; [23]
  Plant response rating, Crabgrass, Brazil: 5
[11]; [24]
  Plant response rating, Crabgrass, Brazil: 20
[11]; [20]
  Plant response rating, Crabgrass, Brazil: 0
[12]; [21]
  Plant response rating, Field Bindweed: 75
[12]; [17]
  Plant response rating, Field Bindweed: 50
[12]; [22]
  Plant response rating, Field Bindweed: 95
[12]; [18]
  Plant response rating, Field Bindweed: 70
[12]; [23]
  Plant response rating, Field Bindweed: 75
[12]; [24]
  Plant response rating, Field Bindweed: 80
[12]; [19]
  Plant response rating, Field Bindweed: 20
[12]; [20]
  Plant response rating, Field Bindweed: 20
